# Source: ChEMBL document CHEMBL5528035, “Design, Synthesis, and Biological Evaluation for First GPX4 and CDK Dual Inhibitors” (J Med Chem, 2024)
# Active and inactive are the calls of the source. No cut-off for these calls is given here.
# What was measured:
# [1] = Half life in Sprague-Dawley rat at 10 mg/kg,iv administration measured upto 24 hrs by LC-MS/MS analysis; assay type: ADME, organism-based; settings: in vivo
# [2] = Toxicity in BALB/c mouse xenografted with human MDA-MB-231 cells assessed as morphological change in liver at 40 mg/kg,ip administrated for 21 consecutive days by hematoxylin and eosin staining based analysis; assay type: organism-based; settings: in vivo
# MDA-MB-231 [3] = assay: Induction of ferroptosis in human MDA-MB-231 cells assessed as downregulation of GPX4 expression incubated for 24 hrs by Western blotting analysis; assay type: functional, cell-based
# [4] = Clearance in Sprague-Dawley rat at 10 mg/kg,iv administration measured upto 24 hrs by LC-MS/MS analysis; assay type: ADME, organism-based; settings: in vivo
# [5] = Intrinsic clearance in human liver microsomes in presence of NADPH incubated for 5 to 45 mins by LC/MS analysis; assay type: ADME, Microsome; settings: time 5-45 min, read-out: CLH
# HCT-116 [6] = assay: Induction of cell cycle arrest in human HCT-116 cells assessed as downregulation of E2F1 expression at 0.5 to 2 uM incubated for 24 hrs by Western blotting analysis; assay type: functional, cell-based; settings: dose 0.5-2 µM
# HCT-116 [7] = assay: Induction of ferroptosis in human HCT-116 cells assessed as increase in intracellular ferrous ion level at 0.5 to 2 uM incubated for 24 hrs by ferroOrange probe based flow cytometric analysis; assay type: functional, cell-based; settings: dose 0.5-2 µM
# MDA-MB-231 [8] = assay: Induction of cell cycle arrest in human MDA-MB-231 cells assessed as downregulation of phoshorylated Rb at 0.5 to 2 uM incubated for 24 hrs by Western blotting analysis; assay type: functional, cell-based; settings: dose 0.5-2 µM
# HepG2 = assay: cells; settings: Homo sapiens, HepG2, 48 h
# Description: Antiproliferative activity against human HepG2 cells assessed as inhibition of cell growth incubated for 48 hrs by CCK-8 assay
# [9] = Toxicity in BALB/c mouse xenografted with human MDA-MB-231 cells assessed as morphological change in liver at 20 mg/kg,ip administrated for 21 consecutive days by hematoxylin and eosin staining based analysis; assay type: organism-based; settings: in vivo
# A549 = assay: cells; settings: Homo sapiens, A549, 48 h
# Description: Antiproliferative activity against human A549 cells assessed as inhibition of cell growth incubated for 48 hrs by CCK-8 assay
# MDA-MB-231 [10] = assay: Induction of ferroptosis in human MDA-MB-231 cells assessed as increase in intracellular ferrous ion level at 0.5 to 2 uM incubated for 24 hrs by ferroOrange probe based confocal laser scanning microscopic analysis; assay type: functional, cell-based; settings: dose 0.5-2 µM
# HCT-116 [11] = assay: Induction of ferroptosis in human HCT-116 cells assessed as increase in intracellular lipid peroxide level incubated for 24 hrs by […] staining based confocal laser scanning microscopic analysis; assay type: functional, cell-based
# [12] = target: CDK6/cyclin D3 (Homo sapiens) (UniProt P30281+Q00534); assay: Inhibition of CDK6/CyclinD3 (unknown origin) at 100 nM preincubated for 15 mins followed by substrate and ATP addition incubated for 10 mins by ADP-glo luminescent assay relative to control; assay type: protein-complex assay; settings: time 25.0 min
# [13] = MRT (0 to t) in Sprague-Dawley rat at 10 mg/kg,iv administration measured upto 24 hrs by LC-MS/MS analysis; assay type: ADME, organism-based; settings: in vivo
# [14] = Toxicity in BALB/c mouse xenografted with human MDA-MB-231 cells assessed as morphological change in heart at 40 mg/kg,ip administrated for 21 consecutive days by hematoxylin and eosin staining based analysis; assay type: organism-based; settings: in vivo
# MDA-MB-231 [15] = assay: Antitumor activity against human MDA-MB-231 cells xenografted in BALB/c mouse assessed as tumor growth inhibition at 20 mg/kg,ip administrated for 21 consecutive days; assay type: functional; settings: read-out: TGI
# MDA-MB-231 [16] = assay: Induction of cell cycle arrest in human MDA-MB-231 cells assessed as downregulation of E2F1 expression at 0.5 to 2 uM incubated for 24 hrs by Western blotting analysis; assay type: functional, cell-based; settings: dose 0.5-2 µM
# MDA-MB-231 [17] = assay: Antitumor activity against human MDA-MB-231 cells xenografted in BALB/c mouse assessed as tumor growth inhibition at 40 mg/kg,ip administrated for 21 consecutive days; assay type: functional; settings: read-out: TGI
# HCT-116 [18] = assay: Induction of ferroptosis in human HCT-116 cells assessed as increase in intracellular lipid peroxide level incubated for 24 hrs by flow cytometric analysis; assay type: functional, cell-based
# [19] = Toxicity in BALB/c mouse xenografted with human MDA-MB-231 cells assessed as change in body weight at 40 mg/kg,ip administrated for 21 consecutive days; assay type: organism-based; settings: in vivo
# MDA-MB-231 [20] = assay: Induction of apoptosis in human MDA-MB-231 cells incubated for 24 hrs by annexin-V-FITC/PI staining based flow cytometric analysis; assay type: functional, cell-based
# [21] = Toxicity in BALB/c mouse xenografted with human MDA-MB-231 cells assessed as morphological change in lung at 20 mg/kg,ip administrated for 21 consecutive days by hematoxylin and eosin staining based analysis; assay type: organism-based; settings: in vivo
# HCT-116 [22] = assay: Induction of apoptosis in human HCT-116 cells incubated for 24 hrs by annexin-V-FITC/PI staining based flow cytometric analysis; assay type: functional, cell-based
# MDA-MB-231 [23] = assay: Induction of apoptosis in human MDA-MB-231 cells assessed as upregulation of Bax expression at 0.5 to 2 uM incubated for 24 hrs by Western blotting analysis; assay type: functional, cell-based; settings: dose 0.5-2 µM
# HCT-116 [24] = assay: Induction of apoptosis in human HCT-116 cells assessed as downregulation of BCL-2 expression at 0.5 to 2 uM incubated for 24 hrs by Western blotting analysis; assay type: functional, cell-based; settings: dose 0.5-2 µM
# HCT-116 [25] = assay: Induction of cell cycle arrest in human HCT-116 cells assessed as accumulation of cells at G1 phase at 0.5 to 2 uM incubated for 24 hrs by RNase/PI staining based flow cytometric analysis; assay type: functional; settings: dose 0.5-2 µM
# [26] = Tmax in Sprague-Dawley rat at 10 mg/kg,iv administration measured upto 24 hrs by LC-MS/MS analysis; assay type: ADME, organism-based; settings: in vivo
# MDA-MB-231 [27] = assay: cells; settings: Homo sapiens, MDA-MB-231, 48 h
# Description: Antiproliferative activity against human MDA-MB-231 cells assessed as inhibition of cell growth incubated for 48 hrs by CCK-8 assay
# MDA-MB-231 [28] = assay: Antitumor activity against human MDA-MB-231 cells xenografted in BALB/c mouse assessed as decrease in phosphorylated Rb expression at 40 mg/kg,ip administrated for 21 consecutive days by immunohistochemistry; assay type: functional, organism-based
# [29] = Half life in human liver microsomes in presence of NADPH incubated for 5 to 45 mins by LC/MS analysis; assay type: ADME, Microsome; settings: time 5-45 min
# [30] = target: CDK2/Cyclin A2 (Homo sapiens) (UniProt P24941+P20248); assay: Inhibition of CDK2/CyclinA2 (unknown origin) at 100 nM preincubated for 15 mins followed by substrate and ATP addition incubated for 10 mins by ADP-glo luminescent assay relative to control; assay type: protein-complex assay; settings: time 25.0 min
# [31] = Toxicity in BALB/c mouse xenografted with human MDA-MB-231 cells assessed as change in body weight at 20 mg/kg,ip administrated for 21 consecutive days; assay type: organism-based; settings: in vivo
# MDA-MB-231 [32] = assay: Induction of apoptosis in human MDA-MB-231 cells assessed as downregulation of BCL-2 expression at 0.5 to 2 uM incubated for 24 hrs by Western blotting analysis; assay type: functional, cell-based; settings: dose 0.5-2 µM
# HCT-116 [33] = assay: cells; settings: Homo sapiens, HCT-116, 48 h
# Description: Antiproliferative activity against human HCT-116 cells assessed as inhibition of cell growth incubated for 48 hrs by CCK-8 assay
# HCT-116 [34] = assay: Induction of ferroptosis in human HCT-116 cells assessed as downregulation of GPX4 expression incubated for 24 hrs by Western blotting analysis; assay type: functional, cell-based
# [35] = Toxicity in BALB/c mouse xenografted with human MDA-MB-231 cells assessed as morphological change in kidney at 20 mg/kg,ip administrated for 21 consecutive days by hematoxylin and eosin staining based analysis; assay type: organism-based; settings: in vivo
smiles,measurement,setting,value
COc1ccc2c(c1)NC(=O)/C2=C1\Nc2ccccc2\C1=N/OCCCNC(=O)CCn1cc(COc2ccc(N(C(=O)CCl)C(C(=O)NCCc3ccccc3)c3cccs3)cc2Cl)nn1 (configuration not stated),half-life,[1],5.4 h
same,Activity,[2],Non-Toxic
same,Activity,MDA-MB-231 [3],Dose-Dependent Effect
same,clearance,[4],10.2 mL/min/kg
same,CLint scaled,[5],27.3 mL/min/kg
same,Activity,HCT-116 [6],Active
same,Activity,HCT-116 [7],Active
same,Activity,MDA-MB-231 [8],Active
same,IC50,HepG2,1490 nM
same,Activity,[9],Non-Toxic
same,IC50,A549,1020 nM
same,Activity,MDA-MB-231 [10],Active
same,Activity,HCT-116 [11],Dose-Dependent Effect
same,inhibition,[12],51.8%
same,MRT last at 24 h,[13],3.6 h
same,Activity,[14],Non-Toxic
same,inhibition in vivo at 20 mg/kg,MDA-MB-231 [15],67.8%
same,Activity,MDA-MB-231 [16],Active
same,inhibition in vivo at 40 mg/kg,MDA-MB-231 [17],83.3%
same,Activity,HCT-116 [18],Dose-Dependent Effect
same,Activity,[19],Non-Toxic
same,Activity,MDA-MB-231 [20],Dose-Dependent Effect
same,Activity,[21],Non-Toxic
same,Activity,HCT-116 [22],Dose-Dependent Effect
same,Activity,MDA-MB-231 [23],Active
same,Activity,HCT-116 [24],Active
same,Activity,HCT-116 [25],Active
same,Tmax,[26],0.8 h
same,IC50,MDA-MB-231 [27],800 nM
same,Activity,MDA-MB-231 [28],Active
same,half-life,[29],0.978 h
same,inhibition,[30],10.7%
same,Activity,[31],Non-Toxic
same,Activity,MDA-MB-231 [32],Active
same,IC50,HCT-116 [33],750 nM
same,Activity,HCT-116 [34],Dose-Dependent Effect
same,Activity,[35],Non-Toxic
